# Data reported in PMC6364417, “Kinase inhibitor library screening identifies synergistic drug combinations effective in sensitive and resistant melanoma cells” (Journal of Experimental & Clinical Cancer Research : CR, 2019).
# How the values were obtained:
# Test in all cases: Kinase inhibitor library screening, PrestoBlue cell viability, 1 or 10 μM, 72 h
# [1] = tested on: 501Mel-GP cells (Dabrafenib-resistant); details: for cell viability (kinase inhibitor library screening): 501Mel GP
# A375 cells (parental) = details: for cell viability (kinase inhibitor library screening): A375 Parental
# [2] = tested on: IGR37-GP cells (Dabrafenib-resistant); details: for cell viability (kinase inhibitor library screening): IGR37 GP
# IGR37 cells (parental) = details: for cell viability (kinase inhibitor library screening): IGR37 Parental
# [3] = tested on: A375-GP cells (Dabrafenib-resistant); details: for cell viability (kinase inhibitor library screening): A375 GP
# [4] = tested on: 501Mel-XP cells (Vemurafenib-resistant); details: for cell viability (kinase inhibitor library screening): 501Mel XP
# [5] = tested on: IGR37-XP cells (Vemurafenib-resistant); details: for cell viability (kinase inhibitor library screening): IGR37 XP
# 501Mel cells (parental) = details: for cell viability (kinase inhibitor library screening): 501Mel Parental
# Procedure, shortened: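 Treatment: 72 h with inhibitor. Detection: PrestoBlue, plate reader. Output: viability as % untreated control. Replicates: duplicate minimum. Lines: parental plus Vemurafenib- or Dabrafenib-resistant derivatives.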
# [6] = tested on: A375-XP cells (Vemurafenib-resistant); details: for cell viability (kinase inhibitor library screening): A375 XP
Compound,"cell viability (kinase inhibitor library screening) ([1]; 1μΜ, 72 h) [%]","cell viability (kinase inhibitor library screening) ([1]; 10μΜ, 72 h) [%]","cell viability (kinase inhibitor library screening) (A375 cells (parental); 10μΜ, 72 h) [%]","cell viability (kinase inhibitor library screening) (A375 cells (parental); 1μΜ, 72 h) [%]","cell viability (kinase inhibitor library screening) ([2]; 1μΜ, 72 h) [%]","cell viability (kinase inhibitor library screening) ([2]; 10μΜ, 72 h) [%]","cell viability (kinase inhibitor library screening) (IGR37 cells (parental); 1μΜ, 72 h) [%]","cell viability (kinase inhibitor library screening) (IGR37 cells (parental); 10μΜ, 72 h) [%]","cell viability (kinase inhibitor library screening) ([3]; 1μΜ, 72 h) [%]","cell viability (kinase inhibitor library screening) ([3]; 10μΜ, 72 h) [%]","cell viability (kinase inhibitor library screening) ([4]; 1μΜ, 72 h) [%]","cell viability (kinase inhibitor library screening) ([4]; 10μΜ, 72 h) [%]","cell viability (kinase inhibitor library screening) ([5]; 1μΜ, 72 h) [%]","cell viability (kinase inhibitor library screening) ([5]; 10μΜ, 72 h) [%]","cell viability (kinase inhibitor library screening) (501Mel cells (parental); 1μΜ, 72 h) [%]","cell viability (kinase inhibitor library screening) (501Mel cells (parental); 10μΜ, 72 h) [%]","cell viability (kinase inhibitor library screening) ([6]; 1μΜ, 72 h) [%]","cell viability (kinase inhibitor library screening) ([6]; 10μΜ, 72 h) [%]",other results
O=C(Nc1cccc(Cl)c1)Nc1ncc(CCNc2ncnc3ccsc23)s1 [SNS-314],79.1,58.4,46.0,47.7,93.6,58.8,81.9,57.7,47.1,46.9,72.3,46.6,88.3,20.8,79.7,75.7,56.7,55.3,
Oc1c2ccccc2c2c3c(cccc13)N=N2 [SP600125],,,,,,,,,,,,,,,,,,,"viability at 1 µM ([1]; Homo sapiens, 72 h, read-out: cell viability, 501Mel GP, 1μΜ): 95.4%; viability at 10 µM ([1]; Homo sapiens, 72 h, read-out: cell viability, 501Mel GP, 10μΜ): 66.8%; viability at 1 µM (A375 cells (parental); Homo sapiens, A-375, 72 h, read-out: cell viability, A375 Parental, 1μΜ): 102%; viability at 10 µM (A375 cells (parental); Homo sapiens, A-375, 72 h, read-out: cell viability, A375 Parental, 10μΜ): 79.2%; viability at 1 µM ([2]; Homo sapiens, IGR-37, 72 h, read-out: cell viability, IGR37 GP, 1μΜ): 92.5%; viability at 10 µM ([2]; Homo sapiens, IGR-37, 72 h, read-out: cell viability, IGR37 GP, 10μΜ): 74.4%; viability at 1 µM (IGR37 cells (parental); Homo sapiens, IGR-37, 72 h, read-out: cell viability, IGR37 Parental, 1μΜ): 98.4%; viability at 10 µM (IGR37 cells (parental); Homo sapiens, IGR-37, 72 h, read-out: cell viability, IGR37 Parental, 10μΜ): 70.6%; viability at 1 µM ([3]; Homo sapiens, A-375, 72 h, read-out: cell viability, A375 GP, 1μΜ): 98.3%; viability at 10 µM ([3]; Homo sapiens, A-375, 72 h, read-out: cell viability, A375 GP, 10μΜ): 83.9%; viability at 1 µM ([4]; Homo sapiens, 72 h, read-out: cell viability, 501Mel XP, 1μΜ): 94.3%; viability at 10 µM ([4]; Homo sapiens, 72 h, read-out: cell viability, 501Mel XP, 10μΜ): 54.5%; viability at 1 µM ([5]; Homo sapiens, IGR-37, 72 h, read-out: cell viability, IGR37 XP, 1μΜ): 96.5%; viability at 10 µM ([5]; Homo sapiens, IGR-37, 72 h, read-out: cell viability, IGR37 XP, 10μΜ): 45.8%; viability at 1 µM (501Mel cells (parental); Homo sapiens, 72 h, read-out: cell viability, 501Mel Parental, 1μΜ): 107%; viability at 10 µM (501Mel cells (parental); Homo sapiens, 72 h, read-out: cell viability, 501Mel Parental, 10μΜ): 75.1%; viability at 1 µM ([6]; Homo sapiens, A-375, 72 h, read-out: cell viability, A375 XP, 1μΜ): 103%; viability at 10 µM ([6]; Homo sapiens, A-375, 72 h, read-out: cell viability, A375 XP, 10μΜ): 91.5%"
Cc1[nH]c(/C=C2\C(=O)Nc3ccc(S(=O)(=O)N(C)c4cccc(Cl)c4)cc32)c(C)c1C(=O)N1CCN(C)CC1 [SU11274],111.1,33.6,65.8,112.5,103.1,37.8,117.2,13.1,104.3,46.3,92.2,0.0577,105.9,19.7,107.1,12.1,111.1,22.4,
CN1CCN(CCOc2cc(OC3CCOCC3)c3c(Nc4c(Cl)ccc5c4OCO5)ncnc3c2)CC1 [Saracatinib (AZD0530)],,,,,,,,,,,,,,,,,,,"cell viability (kinase inhibitor library screening) ([1]; 1μΜ, in %): 100.5; cell viability (kinase inhibitor library screening) ([1]; 10μΜ, in %): 90.5; cell viability (kinase inhibitor library screening) (A375 cells (parental); 1μΜ, in %): 92.2; cell viability (kinase inhibitor library screening) (A375 cells (parental); 10μΜ, in %): 71.5; cell viability (kinase inhibitor library screening) ([2]; 1μΜ, in %): 96.8; cell viability (kinase inhibitor library screening) ([2]; 10μΜ, in %): 77.9; cell viability (kinase inhibitor library screening) (IGR37 cells (parental); 10μΜ, in %): 96.3; cell viability (kinase inhibitor library screening) ([3]; 1μΜ, in %): 81.5; cell viability (kinase inhibitor library screening) ([3]; 10μΜ, in %): 56.9; cell viability (kinase inhibitor library screening) ([4]; 1μΜ, in %): 95.7; cell viability (kinase inhibitor library screening) ([4]; 10μΜ, in %): 79.4; cell viability (kinase inhibitor library screening) ([5]; 1μΜ, in %): 97.3; cell viability (kinase inhibitor library screening) ([5]; 10μΜ, in %): 61.7; cell viability (kinase inhibitor library screening) (501Mel cells (parental); 1μΜ, in %): 105.0; cell viability (kinase inhibitor library screening) ([6]; 1μΜ, in %): 92.8; cell viability (kinase inhibitor library screening) ([6]; 10μΜ, in %): 71.3"
